Source: ChEMBL document CHEMBL3045763, “Synthesis and evaluation of anti-proliferative activity of 1,4-disubstituted phthalazines” (Med Chem Res, 2012)

These molecules were tested on MCF7 (assay: Antiproliferative activity against Homo sapiens (human) MCF7 cells after 72 hr by SRB assay). Settings: MCF7, 72 h.
Format: functional, cell-based
`Brc1ccc(-c2nnc(N(Cc3ccccc3)Cc3ccccc3)c3ccccc23)cc1` showed an IC50 of 4.8 µM.
With `Brc1ccc(-c2nnc(N3CCOCC3)c3ccccc23)cc1` the IC50 was 1.9 µM.
Molecule `Brc1ccc(-c2nnc(Sc3nc4ccccc4s3)c3ccccc23)cc1` has an IC50 of 2.3 µM.
For `CN1CCN(c2nnc(-c3ccc(Br)cc3)c3ccccc23)CC1`, the IC50 was 1.5 µM.
Work on `Brc1ccc(-c2nnc(N3CCCCC3)c3ccccc23)cc1` yielded an IC50 of 9.1 µM.
In the case of `Brc1ccc(-c2nnc(Nc3nccs3)c3ccccc23)cc1`, the IC50 is reported as 1.4 µM.
In the case of `CCOc1ccccc1N1CCN(c2nnc(-c3ccc(Br)cc3)c3ccccc23)CC1`, the IC50 is reported as 4.77 µM.
`Brc1ccc(-c2nnc(N3CCN(c4ccccc4)CC3)c3ccccc23)cc1` gave an IC50 of 9.7 µM.
`Clc1ncccc1Nc1nnc(-c2ccc(Br)cc2)c2ccccc12` gave an IC50 of 1.7 µM.
In the case of `COc1ccccc1N1CCN(c2nnc(-c3ccc(Br)cc3)c3ccccc23)CC1`, the IC50 is reported as 8.6 µM.
Molecule `Clc1cccc(Cl)c1Nc1nnc(-c2ccc(Br)cc2)c2ccccc12` has an IC50 of 1.7 µM.
`COc1ccc(N2CCN(c3nnc(-c4ccc(Br)cc4)c4ccccc34)CC2)cc1` gave an IC50 of 17.5 µM.
